According to ChEMBL document CHEMBL1155629, “Cytotoxic prenyleudesmane diterpenes from the fruits of Dysoxylum kuskusense” (2000):
Converted amounts (≈) assume the structure as drawn.

How the values were obtained:
Assay type in all cases: functional
Details in all cases: read-out: ED50 (the source's name)
[1] = tested on: P388; assay: Cytotoxicity against mouse P388 cells
[2] = tested on: A549; assay: Cytotoxicity against human A549 cells
[3] = tested on: HT-29; assay: Cytotoxicity against human HT29 cells

| SMILES | EC50 [1] [µg/mL] | EC50 [2] [µg/mL] | EC50 [3] [µg/mL] |
| --- | --- | --- | --- |
| CC(C)=CC(=O)/C=C(\C)C1CC[C@@]2(C)CC(=O)C=C(C)[C@@H]2C1 (stereo partly specified) [DYSOKUSONE D] | 3.87 (≈ 12.9 µM) | 2.39 (≈ 7.95 µM) | 4.68 (≈ 15.6 µM) |
| CC1=CC(=O)C[C@]2(C)CCC(/C(C)=C/C=C/C(C)(C)O)C[C@@H]12 (stereo partly specified) [DYSOKUSONE E] | 2.64 (≈ 8.73 µM) | 3.76 (≈ 12.4 µM) | 4.89 (≈ 16.2 µM) |
